According to ChEMBL document CHEMBL3217434, “Matrix-based multiparameter optimisation of glucokinase activators: the discovery of AZD1092” (Medchemcomm, 2011):
pEC50, pIC50: −log10 of the molar value. ≈ marks a conversion by molar mass, not a printed value.

What was measured:
[1] = molecular target: Voltage-gated inwardly rectifying potassium channel KCNH2 (Homo sapiens, UniProt Q12809); assay: Inhibition of human ERG
[2] = Clearance in rat; format: ADME, organism-based; conditions: in vivo
[3] = Apparent permeability from apical to basolateral side of human Caco2 cells; format: ADME, cell-based; conditions: Caco-2
[4] = molecular target: T1, Hexokinase-4 (Homo sapiens, UniProt P35557); assay: Activation of glucokinase (unknown origin)
T1 sequence (P35557 whole entry): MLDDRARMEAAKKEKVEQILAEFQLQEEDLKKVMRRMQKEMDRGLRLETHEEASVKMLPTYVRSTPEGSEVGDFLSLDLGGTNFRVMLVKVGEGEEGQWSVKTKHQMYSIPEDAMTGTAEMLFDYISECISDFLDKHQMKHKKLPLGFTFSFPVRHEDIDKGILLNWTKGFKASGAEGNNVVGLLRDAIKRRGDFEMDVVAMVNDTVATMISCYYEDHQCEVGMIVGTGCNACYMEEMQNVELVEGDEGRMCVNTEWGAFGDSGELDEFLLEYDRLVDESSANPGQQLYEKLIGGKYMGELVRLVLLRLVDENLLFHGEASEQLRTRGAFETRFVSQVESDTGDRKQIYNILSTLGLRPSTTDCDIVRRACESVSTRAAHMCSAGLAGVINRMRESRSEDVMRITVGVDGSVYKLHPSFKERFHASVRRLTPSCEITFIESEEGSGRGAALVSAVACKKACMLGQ

[5] = Lipophilicity, log D of the compound; format: physicochemical; conditions: octanol/water
[6] = Solubility of the compound; format: physicochemical
[7] = Volume of distribution at steady state in rat; format: ADME, organism-based; conditions: in vivo, read-out: Vdss
[8] = Oral bioavailability in rat; format: ADME, organism-based; conditions: in vivo
[9] = Volume of distribution at steady state in dog; format: ADME, organism-based, Canis lupus familiaris; conditions: in vivo, read-out: Vdss
[10] = Oral bioavailability in dog; format: ADME, organism-based, Canis lupus familiaris; conditions: in vivo
[11] = system: Rattus norvegicus; assay: Antidiabetic activity in high fat fed Zucker rat assessed as reduction of AUC of plasma glucose level at 10 mg/kg by oral glucose tolerance test; format: functional; parameters: scale not given: the % may be the effect or the level left
[12] = Clearance in dog; format: ADME, organism-based, Canis lupus familiaris; conditions: in vivo
[13] = system: Rattus norvegicus; assay: Antidiabetic activity in high fat fed Zucker rat assessed as reduction of AUC of plasma glucose level at 3 mg/kg by oral glucose tolerance test; format: functional; parameters: scale not given: the % may be the effect or the level left

Chain of Voltage-gated inwardly rectifying potassium channel KCNH2 (Q12809 whole entry): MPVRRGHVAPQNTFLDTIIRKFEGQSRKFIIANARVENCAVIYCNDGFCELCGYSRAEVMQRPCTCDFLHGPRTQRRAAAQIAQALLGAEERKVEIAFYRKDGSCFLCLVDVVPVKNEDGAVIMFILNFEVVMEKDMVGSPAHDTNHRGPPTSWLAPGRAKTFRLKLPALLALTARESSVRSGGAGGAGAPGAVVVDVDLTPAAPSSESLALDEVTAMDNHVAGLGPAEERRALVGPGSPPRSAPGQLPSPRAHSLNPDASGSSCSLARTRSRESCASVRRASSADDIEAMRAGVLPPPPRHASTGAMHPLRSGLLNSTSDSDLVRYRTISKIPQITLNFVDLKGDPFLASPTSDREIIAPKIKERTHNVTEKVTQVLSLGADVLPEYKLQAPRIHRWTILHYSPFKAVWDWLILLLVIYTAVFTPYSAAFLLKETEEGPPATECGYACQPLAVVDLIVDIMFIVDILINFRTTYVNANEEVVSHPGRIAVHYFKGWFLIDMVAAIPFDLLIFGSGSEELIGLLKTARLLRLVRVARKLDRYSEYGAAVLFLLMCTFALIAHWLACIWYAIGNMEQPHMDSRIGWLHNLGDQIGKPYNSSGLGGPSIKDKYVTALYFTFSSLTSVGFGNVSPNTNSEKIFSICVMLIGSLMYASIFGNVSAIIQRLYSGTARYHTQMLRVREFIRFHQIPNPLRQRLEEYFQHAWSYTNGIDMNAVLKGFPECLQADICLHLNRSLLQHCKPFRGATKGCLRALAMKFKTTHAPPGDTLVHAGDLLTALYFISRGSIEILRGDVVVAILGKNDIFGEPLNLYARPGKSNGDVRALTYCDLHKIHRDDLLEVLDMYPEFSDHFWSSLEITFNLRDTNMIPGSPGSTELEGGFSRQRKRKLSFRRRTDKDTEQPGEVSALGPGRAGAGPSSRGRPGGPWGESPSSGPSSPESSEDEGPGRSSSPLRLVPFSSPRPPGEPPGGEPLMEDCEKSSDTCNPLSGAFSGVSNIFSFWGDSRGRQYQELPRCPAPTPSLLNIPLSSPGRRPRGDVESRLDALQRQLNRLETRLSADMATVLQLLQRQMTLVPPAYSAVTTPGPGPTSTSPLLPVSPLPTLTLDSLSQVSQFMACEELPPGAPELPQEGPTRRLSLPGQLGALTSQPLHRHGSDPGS

## COC[C@H](C)Oc1cc(Oc2ccc(C(=O)N(C)C)cc2)cc(C(=O)Nc2cc[nH]n2)c1
[1]
  pIC50: < 4.02
[2]
  clearance: 34 mL/min/kg
[3]
  Papp A→B: 2.3 ×10⁻⁶ cm/s
[4]
  pEC50: 7.30
[5]
  logD: 1.8
[6]
  solubility: 730 µM (≈ 320 µg/mL)
[7]
  Vd: 1.1 L/kg
[8]
  bioavailability: 27%

## COC[C@H](C)Oc1cc(Oc2ccc(S(C)(=O)=O)cc2)cc(C(=O)Nc2nccs2)c1
[9]
  Vd: 0.8 L/kg
[2]
  clearance: 11 mL/min/kg
[10]
  bioavailability: 11%
[11]
  Activity: 29%
[7]
  Vd: 0.3 L/kg
[8]
  bioavailability: 28%
[12]
  clearance: 7.2 mL/min/kg

## COC[C@H](C)Oc1cc(Oc2ccc(S(C)(=O)=O)cc2)cc(C(=O)Nc2nc(C)ns2)c1
[9]
  Vd: 0.3 L/kg
[2]
  clearance: 5.6 mL/min/kg
[10]
  bioavailability: 56%
[13]
  Activity: 27%
[7]
  Vd: 0.2 L/kg
[8]
  bioavailability: 71%
[12]
  clearance: 0.5 mL/min/kg

## C[C@@H](CO)Oc1cc(Oc2ccc(C(=O)N(C)C)cc2)cc(C(=O)Nc2ccn(C)n2)c1
[1]
  pIC50: < 4.00
[2]
  clearance: 31 mL/min/kg
[3]
  Papp A→B: 1.7 ×10⁻⁶ cm/s
[4]
  pEC50: 7.40
[5]
  logD: 1.7
[6]
  solubility: > 1000 µM
[7]
  Vd: 1.9 L/kg
[8]
  bioavailability: 78%

## C[C@@H](CO)Oc1cc(Oc2ccc(C(=O)N3CCC3)cc2)cc(C(=O)Nc2ccn(C)n2)c1
[1]
  pIC50: 4.15
[9]
  Vd: 1.3 L/kg
[2]
  clearance: 14 mL/min/kg
[3]
  Papp A→B: 1.8 ×10⁻⁶ cm/s
[4]
  pEC50: 7.52
[10]
  bioavailability: 51%
[5]
  logD: 1.8
[6]
  solubility: 350 µM (≈ 158 µg/mL)
[13]
  Activity: 24%
[7]
  Vd: 1.8 L/kg
[8]
  bioavailability: 30%
[12]
  clearance: 14 mL/min/kg
